The conditions of data set [1]: cited from earlier work; for H—B pKa: conjugate acid of B^-.
Data set [2] in a line: Solubility measurement (saturated solution concentration by NMR). Format: physicochemical. The following applies: with less than 0.1 M β-CD added. The protocol: A general procedure was applied following below steps. First a supernatant was prepared by mixing solute and solvent with heating, stirring, and centrifugation. The resulting cooled mixture was filtered through 0.2 μm PP membrane filter. The saturated solution concentration was determined by NMR. NMR sample was prepared with mixing 100 μL of saturated solution, 50 μL of internal standard solution (1 M sodium methane sulfonate) and 950 μL D2O.

Data set [3] can be described thus: PFG NMR diffusion coefficients (1H, 23Na). The following applies: for D(Na^+): 23Na PFG NMR at 25° C. Format: physicochemical. The protocol: Nuclear magnetic resonance spectroscopy: NMR spectra were either collected on a 500 MHz Oxford NMR spectrometer at 25° C. (the system consists of an Oxford AS500 magnet connected to an Agilent Technologies console), or collected on a 400 MHz NMR spectrometer (Bruker 400 MHz Avance III NMR with NanoBay console, equipped with a SampleCase™ autosampler using IconNMR automation. Probe: BBFO 5 mm SmartProbe sensor). Chemical shifts were reported in ppm with the solvent resonance as the internal standard (DMSO, δ=2.50; D2O, δ=4.70; CDCl3, δ=7.26).

Data set [4] can be described thus: Rotating disk electrode (RDE) study. Format: physicochemical. The following applies: 27S4CFL (5 mM) in 0.1 M β-CD/1 M NaOH. The protocol:
Rotating disk electrode (RDE) measurements (Feng et al., Science 2021, 372:836) were performed using a three-electrode configuration consisting of a glassy carbon working electrode (3 mm diameter), a carbon rod counter electrode and an Ag/AgCl reference electrode. The electrolytes of 5 mM redox-active materials in 1.0 M NaOH were used. Data were collected using a CHI potentiostat at scan rates of 5 mV/s in the potential range of −1.55V˜−0.5V vs Ag/AgCl. The rotation rates were at 300, 600, 900, 1200, 1500, 1800, 2100 and 2400 rpm. […] The Koutecky-Levich plots at different overpotentials were extrapolated to get the kinetic current ik according to the Koutecky-Levich equation:
[formula] The exchange current i0 can be obtained by fitting ik to the Tafel plot at the overpotential of zero, from which the reaction rate constant (k0) was determined according to Butler-Volmer equation: i0=nFACk0 Flow Battery Tests

Data set [5] can be described thus: Small-angle X-ray scattering (SAXS) cluster size. It counts as physicochemical. The following applies: for Diameter: SAXS. The text has this:
Small-angle X-ray scattering: Synchrotron SAXS technique is a powerful technique to measure the size of dissolved molecules, clusters, and suspended particles. SAXS resolves the particle size and shape over a wide range of sizes from several Å to hundreds of nm. Considering the small sizes and low electron contrast of β-CD, FL and FLOH relative to solution, there was a focus on collecting data from a scattering vector, q, of 0.05 to 2 Å-1. Small-angle X-ray scattering (SAXS) data was acquired at beamline 12-ID-B of the APS. A constant incident photon energy of 13.3 keV (λ=0.9322 Å) was used to measure samples in transmission through a 2-mm ID silica capillary (Charles Supper SiO2 capillaries, 10 μm wall thickness). Sample-to-detector distance was calibrated using a silver behenate standard. 2D images were recorded using a Pilatus 2M detector (Dectris; pixel size 172×172 μm^2) for five frames at a 1 s exposure time each. Artifacts from static noise were subtracted using detector dark images, which were acquired every ten frames. Solution blanks were acquired identical to the suspension samples and subtracted using a scaling factor of 1. The RAW program from the BioXTAS package was used, as well as SasView and Irena, to integrate the data, average and merge scans, perform background subtractions, and to calculate pair distance distribution functions (PDDF).

Data set [6] is described as follows: Battery current response test at controlled voltage. The following applies: fully charged electrolyte, 0.9V controlled voltage discharge. The method, then:
The battery of FIG. 13 was constructed similar to above described procedure, except that two consecutive cell stacks were employed (electrolyte flow through the two cells consecutively), one for charging and discharging, one for OCV monitoring. The battery in FIG. 18 was constructed using one cell stack, with additional pump and tubing system circulating ˜3 mL electrolyte through EPR detecting tube at 100 rpm rate. Anolyte was comprised of 12 mL 0.1 M 274FL/1 M NaOH with specified additive at 0.086 M. Catholyte was comprised of 500 mL 0.1 M ferrocyanide/0.05 M ferricyanide/1 M NaOH. Electrolyte was charged until desired SOC reached. Then the discharge current response was measured at controlled voltage of 0.9V. Each measurement was repeated 5 cycles (FIG. 13) and experiments were repeated two times in FIG. 18.

Data set [7] can be described thus: H-cell oxidation rate measurement (chronocoulometry). The method, then: The measurement was conducted with H-cell equipped with Hg/HgO as reference electrode and Glassy carbon electrode as working electrode (0.0707 cm^2). Carbon rod was used as counter electrode. Stir bar was equipped to facilitate mass transfer, so it is not considered as a limiting factor in the measurement of oxidation process. Chronocoulometry method was applied at specified potential for 120 s with IR compensation (CI mode on Gamry) and 1.5 s per data point. Nafion® 212 (soaked in 1 M NaOH at room temperature) was used as separator. Each data point was repeated three times. The electrolyte solution was prepared using the battery charging to specified SOC. The battery was constructed with 8 mL of 0.3 M 274FL/1 eqNaOH/1 M NaOH and 30 mL of 0.3 M potassium ferrocyanide/0.3 M potassium ferricyanide/1 M NaOH. After charged to specified SOC, the anolyte solution was diluted with 1 M NaOH to result a 15 mM active material solution. The catholyte was diluted with 1 M NaOH to result an 8.75 mM potassium ferrocyanide/28.75 mM potassium ferricyanide solution. The solution used for H-cell measurement in each compartment was 5 mL, with addition of specified amount of additive. To prepare deuterated fluorenol, the cell was constructed using NaOD/D2O for both anolyte and catholyte.
Due to well stirred solution and only 120 s measurement with small electrode area, mass transfer and SOC change influence can be considered as neglectable. Thus, a linear relationship was obtained (A condition where neglectable oxidizable material concentration change during testing period). The slope represents an oxidation rate (C/s, average current, unit A) for the solution oxidizable species during that testing period.
A heterogeneous reaction oxidation rate constant (cm/s) at a specified overpotential was calculated based on a pseudo first order reaction model (Hammerich et al., Organic electrochemistry:revised and expanded 2015, CRC Press; Markle et al., Science Advances 2018, 4: eaat5776):
[formula] here “i” unit is A(C/s), A is 0.0707 cm^2. […]

The nature of data set [8]: EPR of comproportionation mixture (FLOH + FL). The following applies: 0.001 M FLOH and 0.001 M FL 1:1, 0.001 M β-CD, 20 min after mixing. The protocol:
Electron paramagnetic resonance spectroscopy: EPR measurements were performed on a Bruker ELEXSYS E580 spectrometer at 298 K. The electrolyte solution sample was pulled into a glass capillary (VitroTubes™, ID 0.8 mm and OD 1 mm) using a Hamilton syringe connected through nanotight fittings from Valco Instruments Co. Inc. The capillary was sealed using Critoseal™ Leica Microsystems capillary tube sealant on both ends and was further placed inside a 4 mm EPR tube with the open end sealed inside a glove box filled with nitrogen. All samples were prepared inside the glove box immediately before EPR experiments to minimize the influence of air and moisture. The typical settings for the spectra were microwave frequency=9.324 GHz, sweep time=41.94 s, time constant=5.12 ms, power=0.02 mW, field modulation amplitude=0.05 G, and sweep width=24 G for dilute solutions in order to capture the detailed hyperfine structures but the sweep width was increased to 50 G for relatively concentrated solutions to incorporate their broader line widths. Absolute spin concentrations of the samples were determined by calibration curves of the spin standard TEMPO (2,2,6,6-tetramethyl-1-piperidinyloxyl) with concentrations varying from 0.01 mM to 100 mM, and another spin standard 4-Hydroxy-TEMPO with concentrations varying from 0.1 M to 1.0 M.

Data set [9] in a line: pKa of additive / proton acceptor (H—B) and deprotonation of β-CD in alkaline solution. Format: physicochemical. The following applies: 0.1 M β-CD added to 1 M NaOH. The text has this: β-(Cyclodextrin)CD was selected as model compound. Not only benefiting from the cavity containing poly-hydroxyl structure, but it also has a pKa at around 13.5, which is similar to the pKa of functionalized fluorenol, rendering a potentially strong H-bonding structure. Based on past studies (Gaidamauskas et al., Carbohydrate Research 2009, 344:250-254) and measurement of β-CD behavior in alkaline solution, this supermolecule experiences two-fold of deprotonation in 1 M NaOH. […] From a battery operation point, β-CD is notable for its redox-inert character and large molecular size, which leaves no concern of crossover and loss of catalyst. From a practical application point, the low-cost and non-toxic merit warrants feasible implementation.

Where [10] appears, read: ratio of diffusion coefficients.

With `Oc1ccc(O)cc1`, in data set [1], the “H—B pKa” value is 9.7.
Consider `O=C(O)c1cccc2c1-c1ccc(S(=O)(=O)[O-])cc1C2=O.[K+]` [4C7SFL, 4-carboxylate-7-sulfonate fluorenone/fluorenol], for which the solubility in [2] (aqueous with cosolvent or surfactant or cyclodextrin, thermodynamic from solid, read-out: measured solubility) is roughly 1900 mM. In [2], the “solubility increase compared with solubility without β-CD” value is listed as roughly 30% and the “volumetric capacity corresponding to solubility” value was 101.8 Ah/L.
On to `O=C(O)c1cc(S(=O)(=O)O)cc2c1-c1ccc(S(=O)(=O)O)cc1C2=O` [27S4CFL, 2,7-sulfonate-4-carboxylate fluorenone], for which, in [3] (1H PFG NMR at 25° C.), the “D(FLOH or FL)” value is recorded as 1.92 ×10^−10 m^2/s and the “D(H2O)” value was 12.1 ×10^−10 m^2/s. For the same molecule, the “D(Na^+)” value in data set [3] is reported as 7.60 ×10^−10 m^2/s. Also, in data set [3] (setting [10]), the “D(FLOH or FL)/D(H2O)” value is given as 0.16 and the “D(Na^+)/D(H2O)” value is listed as 0.63. In [4], the calculated diffusion coefficient is listed as 7.56×10^−6 cm^2/s and the “calculated kinetic reduction rate constant for the first electron” value was 0.00351 cm/s. Besides, the Diameter in [5] is 16.48 ± 0.21 Å Å.
Regarding `OCC(F)(F)F` [CF3CH2O], the “H—B pKa” value in data set [1] was 11.4-12.4.
Turning to `O=C(O)c1cc(S(=O)(=O)O)cc2c1-c1ccc(S(=O)(=O)O)cc1C2O` (centres unmarked) [FLOH, 2,7-sulfonate-4-carboxylate fluorenol], in data set [3] (1H PFG NMR at 25° C.), the “D(FLOH - H6)” value was 2.43 ×10^−10 m^2/s, the “D(FLOH or FL)” value is 2.45 ×10^−10 m^2/s and the “D(H2O)” value is reported as 13.6 ×10^−10 m^2/s. Moreover, in data set [3], the “D(Na^+)” value is 6.72 ×10^−10 m^2/s. In data set [3] (setting [10]), the “D(FLOH or FL)/D(H2O)” value is on record as 0.18 and the “D(Na^+)/D(H2O)” value came to 0.49. Further, the Diameter in data set [5] is on record as 12.32 ± 1.84 Å Å.
Consider `OC[C@H]1O[C@@H]2O[C@H]3[C@H](O)[C@@H](O)[C@@H](O[C@H]4[C@H](O)[C@@H](O)[C@@H](O[C@H]5[C@H](O)[C@@H](O)[C@@H](O[C@H]6[C@H](O)[C@@H](O)[C@@H](O[C@H]7[C@H](O)[C@@H](O)[C@@H](O[C@H]8[C@H](O)[C@@H](O)[C@@H](O[C@H]1[C@H](O)[C@H]2O)O[C@@H]8CO)O[C@@H]7CO)O[C@@H]6CO)O[C@@H]5CO)O[C@@H]4CO)O[C@@H]3CO` [β-CD, β-cyclodextrin], for which, in data set [3] (1H PFG NMR at 25° C.), the “D(H2O)” value was 13.1 ×10^−10 m^2/s and the “D(β-CD)” value is given as 1.57 ×10^−10 m^2/s. For the same molecule, in data set [3], the “D(Na^+)” value was 8.12 ×10^−10 m^2/s. Besides, in [3] (setting [10]), the “D(Na^+)/D(H2O)” value turned out to be 0.62 and the “D(β-CD)/D(H2O)” value came to 0.12. Further, the “peak current density relative to blank” value in [6] turned out to be 1.6 times. In addition, in data set [7] (H-cell, −0.65V vs Hg/HgO), the “increment of fluorenol oxidation” value turned out to be 1.6 times. Also, the KIE value in data set [7] (applied potential of −0.65V vs Hg/HgO) came to 2.42. Further, in [7] (deuterated fluorenol), the “deuterated fluorenol oxidation rate enhancement” value was found to be 1.4 times. In addition, the “reduction of radical concentration estimated from EPR peak intensity” value in [8] was 60%. Also, the pKa entry in data set [1] was “around 13.5”. Further, in data set [9], the “hydroxide consumption corresponding to pH decrease” value was 0.184 M. Besides, in [5], the Diameter was 11.76 ± 3.94 Å Å. Also, in data set [5] (SAXS RDFs), the “height of the cup” value was roughly 4 Å and the “width of the cup” value is roughly 12 Å.

The solubility is the dissolved amount per volume that the medium holds.

These data come from patent US12555809B2, “Additives for fluorenone/fluorenol based aqueous redox flow batteries” (Battelle Memorial Institute, priority 2021, dated 2026).
